Results as given in PubChem BioAssay AID248 (DTP/NCI, 2004).
Several values for one entry are separate records, joined by “and”; a condition that tells them apart may be missing. Identical values can stand only once. Inconclusive results and toxic doses are left out. No stated cut-off is given here; in the data, active means T/C of 150% or more; inactive means T/C below 125%.

Test system: L1210 leukemia ip in BDF1 mice, survival T/C
Experiment: NCI In Vivo Anticancer Drug Screen. Data for tumor model L1210 Leukemia (intraperitoneal) in B6D2F1 (BDF1) mice
Conditions: higher = longer survival
Summary of the method: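 Transplantable tumor model; survival measured in treated vs vehicle control mice. Value = treated/control.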

[1] = endpoint: mean survival time, dose: 100.0 mg/kg/injection, schedule: Q04DX003 (ip), vehicle: saline with Tween-80
[2] = endpoint: mean survival time, dose: 200.0 mg/kg/injection, schedule: Q04DX003 (ip), vehicle: saline with Tween-80
[3] = endpoint: mean survival time, dose: 400.0 mg/kg/injection, schedule: Q04DX003 (ip), vehicle: saline with Tween-80
[4] = endpoint: mean survival time, dose: 100.0 mg/kg/injection, schedule: Q04DX003 (ip), vehicle: saline
[5] = endpoint: mean survival time, dose: 200.0 mg/kg/injection, schedule: Q04DX003 (ip), vehicle: saline
[6] = endpoint: mean survival time, dose: 100.0 mg/kg/injection, schedule: Q01DX001 (ip), vehicle: saline
[7] = endpoint: mean survival time, dose: 200.0 mg/kg/injection, schedule: Q01DX001 (ip), vehicle: saline
[8] = endpoint: mean survival time, dose: 400.0 mg/kg/injection, schedule: Q01DX001 (ip), vehicle: saline

Measured: T/C

CCCCCCCCCCCCCC(=O)N(CCCC)CCCC
inactive: endpoint: mean survival time, dose: 50.0 mg/kg/injection, schedule: Q01DX009 (ip), vehicle: carboxymethylcellulose (CMC) 98 % of control and 90 % of control | endpoint: mean survival time, dose: 100.0 mg/kg/injection, schedule: Q01DX001 (ip), vehicle: carboxymethylcellulose (CMC) 94 % of control | endpoint: mean survival time, dose: 100.0 mg/kg/injection, schedule: Q04DX003 (ip), vehicle: carboxymethylcellulose (CMC) 95 % of control | endpoint: mean survival time, dose: 200.0 mg/kg/injection, schedule: Q01DX001 (ip), vehicle: carboxymethylcellulose (CMC) 93 % of control | endpoint: mean survival time, dose: 200.0 mg/kg/injection, schedule: Q04DX003 (ip), vehicle: carboxymethylcellulose (CMC) 92 % of control | endpoint: mean survival time, dose: 400.0 mg/kg/injection, schedule: Q01DX001 (ip), vehicle: carboxymethylcellulose (CMC) 98 % of control | endpoint: mean survival time, dose: 400.0 mg/kg/injection, schedule: Q01DX009 (ip), vehicle: carboxymethylcellulose (CMC) 95 % of control and 104 % of control | endpoint: mean survival time, dose: 400.0 mg/kg/injection, schedule: Q04DX003 (ip), vehicle: carboxymethylcellulose (CMC) 96 % of control

CC(=O)Nc1cc([N+](=O)[O-])c(C)c([N+](=O)[O-])c1
inactive: [1] 104 % of control | [2] 97 % of control | [3] 97 % of control

O=C(O)CN(CC(=O)O)Cc1ccccc1
inactive: endpoint: mean survival time, dose: 5.0 mg/kg/injection, schedule: Q01DX001 (ip), vehicle: saline 102 % of control | endpoint: mean survival time, dose: 10.0 mg/kg/injection, schedule: Q01DX001 (ip), vehicle: saline 102 % of control | endpoint: mean survival time, dose: 20.0 mg/kg/injection, schedule: Q01DX001 (ip), vehicle: saline 100 % of control | endpoint: mean survival time, dose: 40.0 mg/kg/injection, schedule: Q01DX001 (ip), vehicle: saline 100 % of control

O=C(/C=C(\CBr)c1ccc(-c2ccccc2)cc1)c1ccccc1
inactive: endpoint: mean survival time, dose: 50.0 mg/kg/injection, schedule: Q01DX001 (ip), vehicle: saline with Tween-80 92 % of control | endpoint: mean survival time, dose: 100.0 mg/kg/injection, schedule: Q01DX001 (ip), vehicle: saline with Tween-80 87 % of control and 89 % of control | endpoint: mean survival time, dose: 200.0 mg/kg/injection, schedule: Q01DX001 (ip), vehicle: saline with Tween-80 91 % of control | endpoint: mean survival time, dose: 400.0 mg/kg/injection, schedule: Q01DX001 (ip), vehicle: saline with Tween-80 94 % of control

O=S(=O)(c1ccc(Cl)cc1)c1ccc(Cl)cc1
inactive: endpoint: mean survival time, dose: 100.0 mg/kg/injection, schedule: Q01DX009 (ip), vehicle: saline 91 % of control | [1] 102 % of control | [4] 104 % of control | endpoint: mean survival time, dose: 200.0 mg/kg/injection, schedule: Q01DX009 (ip), vehicle: saline 95 % of control | [2] 107 % of control | [5] 95 % of control | endpoint: mean survival time, dose: 400.0 mg/kg/injection, schedule: Q01DX009 (ip), vehicle: saline 93 % of control | [3] 95 % of control | endpoint: mean survival time, dose: 400.0 mg/kg/injection, schedule: Q04DX003 (ip), vehicle: saline 106 % of control

CCCCCCCCCCCCOc1ccccc1C=O
inactive: endpoint: mean survival time, dose: 100.0 mg/kg/injection, schedule: Q04DX003 (ip), vehicle: Klucel (hydroxypropylcellulose) (HPC) 101 % of control | endpoint: mean survival time, dose: 200.0 mg/kg/injection, schedule: Q04DX003 (ip), vehicle: Klucel (hydroxypropylcellulose) (HPC) 106 % of control | endpoint: mean survival time, dose: 400.0 mg/kg/injection, schedule: Q04DX003 (ip), vehicle: Klucel (hydroxypropylcellulose) (HPC) 96 % of control

CCCCCCCCCCCCOc1ccc(/C(=N\N=C(N)N)c2ccccc2)c(O)c1
inactive: endpoint: mean survival time, dose: 15.0 mg/kg/injection, schedule: Q01DX Z (ip), vehicle: saline 91 % of control | endpoint: mean survival time, dose: 30.0 mg/kg/injection, schedule: Q01DX Z (ip), vehicle: saline 89 % of control | endpoint: mean survival time, dose: 120.0 mg/kg/injection, schedule: Q01DX Z (ip), vehicle: saline 92 % of control | endpoint: mean survival time, dose: 120.0 mg/kg/injection, schedule: Q01DX Z (oral), vehicle: saline 102 % of control | endpoint: mean survival time, dose: 240.0 mg/kg/injection, schedule: Q01DX Z (ip), vehicle: saline 103 % of control | endpoint: mean survival time, dose: 240.0 mg/kg/injection, schedule: Q01DX Z (oral), vehicle: saline 102 % of control | endpoint: mean survival time, dose: 480.0 mg/kg/injection, schedule: Q01DX Z (ip), vehicle: saline 110 % of control | endpoint: mean survival time, dose: 480.0 mg/kg/injection, schedule: Q01DX Z (oral), vehicle: saline 95 % of control | endpoint: mean survival time, dose: 960.0 mg/kg/injection, schedule: Q01DX Z (oral), vehicle: saline 101 % of control

O=[N+]([O-])c1ccc(C[n+]2ccccc2)cc1
inactive: endpoint: mean survival time, dose: 50.0 mg/kg/injection, schedule: Q01DX009 (ip), vehicle: saline 89 % of control

CC(C)CCOC(=O)Nc1cccc(Cl)c1
inactive: endpoint: mean survival time, dose: 75.0 mg/kg/injection, schedule: Q01DX009 (ip), vehicle: saline with Tween-80 113 % of control | endpoint: mean survival time, dose: 100.0 mg/kg/injection, schedule: Q04DX002 (ip), vehicle: saline with Tween-80 93 % of control | endpoint: mean survival time, dose: 150.0 mg/kg/injection, schedule: Q01DX009 (ip), vehicle: saline with Tween-80 103 % of control | endpoint: mean survival time, dose: 200.0 mg/kg/injection, schedule: Q04DX002 (ip), vehicle: saline with Tween-80 86 % of control | endpoint: mean survival time, dose: 300.0 mg/kg/injection, schedule: Q01DX009 (ip), vehicle: saline with Tween-80 98 % of control | endpoint: mean survival time, dose: 400.0 mg/kg/injection, schedule: Q04DX002 (ip), vehicle: saline with Tween-80 89 % of control

C=CC[N+](C)([O-])c1ccc(C(=O)OC)cc1 (stereo not drawn)
inactive: [6] 107 % of control | [7] 102 % of control | [8] 96 % of control

Cc1cc(N(CCCl)CCCl)ccc1N=Nc1ccccc1
inactive: endpoint: median survival time, dose: 100.0 mg/kg/injection, schedule: Q01DX009 (ip), vehicle: Klucel (hydroxypropylcellulose) (HPC) 98 % of control | endpoint: median survival time, dose: 200.0 mg/kg/injection, schedule: Q01DX009 (ip), vehicle: Klucel (hydroxypropylcellulose) (HPC) 97 % of control | endpoint: median survival time, dose: 400.0 mg/kg/injection, schedule: Q01DX009 (ip), vehicle: Klucel (hydroxypropylcellulose) (HPC) 93 % of control

CCCCCCC(=O)/C=C/c1ccccc1Cl
inactive: endpoint: mean survival time, dose: 100.0 mg/kg/injection, schedule: Q01DX009 (ip), vehicle: other 98 % of control | endpoint: mean survival time, dose: 200.0 mg/kg/injection, schedule: Q01DX009 (ip), vehicle: other 92 % of control | endpoint: mean survival time, dose: 400.0 mg/kg/injection, schedule: Q01DX009 (ip), vehicle: other 93 % of control

Cc1ccnc2c1ccc1ccccc12
inactive: [6] 100 % of control | [7] 98 % of control | [8] 93 % of control

Nc1ccc(C(=O)O)cn1
inactive: endpoint: mean survival time, dose: 50.0 mg/kg/injection, schedule: Q01DX001 (ip), vehicle: saline 96 % of control | [6] 106 % of control | [7] 100 % of control

CN(C)C(=O)c1cccc(COc2ccc(N)cc2Cl)c1
inactive: [4] 96 % of control | [5] 106 % of control

O=C(Nc1cccc([N+](=O)[O-])c1)c1ccc(Cl)cc1Cl
inactive: [1] 102 % of control | [2] 93 % of control | [3] 98 % of control

CSc1nc2c(N)ncnc2n1C1OC(CO)C(O)C1O (stereo not drawn)
inactive: endpoint: mean survival time, dose: 100.0 mg/kg/injection, schedule: Q01DX005 (ip), vehicle: saline 98 % of control | endpoint: mean survival time, dose: 200.0 mg/kg/injection, schedule: Q01DX005 (ip), vehicle: saline 101 % of control

CCOC(=O)c1ccccc1N(O)C(=O)Nc1ccc(Cl)cc1
inactive: [1] 100 % of control | [2] 105 % of control | [3] 103 % of control

CC(=O)OC1C(C=C(C)C)OC2CC3(C)C4=C(CCC3(C)C2C1C)C1(C)CCC(O)C(C)(C)C1CC4 (stereo not drawn)
inactive: endpoint: mean survival time, dose: 20.0 mg/kg/injection, schedule: Q01DX001 (sc), vehicle: steriod suspending solution 104 % of control | endpoint: mean survival time, dose: 40.0 mg/kg/injection, schedule: Q01DX001 (sc), vehicle: steriod suspending solution 102 % of control | endpoint: mean survival time, dose: 50.0 mg/kg/injection, schedule: Q01DX001 (sc), vehicle: steriod suspending solution 101 % of control | endpoint: mean survival time, dose: 80.0 mg/kg/injection, schedule: Q01DX001 (sc), vehicle: steriod suspending solution 102 % of control | endpoint: mean survival time, dose: 100.0 mg/kg/injection, schedule: Q01DX001 (sc), vehicle: steriod suspending solution 92 % of control | endpoint: mean survival time, dose: 160.0 mg/kg/injection, schedule: Q01DX001 (sc), vehicle: steriod suspending solution 102 % of control | endpoint: mean survival time, dose: 200.0 mg/kg/injection, schedule: Q01DX001 (sc), vehicle: steriod suspending solution 97 % of control | endpoint: mean survival time, dose: 400.0 mg/kg/injection, schedule: Q01DX001 (sc), vehicle: steriod suspending solution 106 % of control

CNC(=O)NCCCCCCCCCCC(=O)O
inactive: endpoint: mean survival time, dose: 100.0 mg/kg/injection, schedule: Q01DX009 (ip), vehicle: Klucel (hydroxypropylcellulose) (HPC) 104 % of control | endpoint: mean survival time, dose: 200.0 mg/kg/injection, schedule: Q01DX009 (ip), vehicle: Klucel (hydroxypropylcellulose) (HPC) 91 % of control | endpoint: mean survival time, dose: 400.0 mg/kg/injection, schedule: Q01DX009 (ip), vehicle: Klucel (hydroxypropylcellulose) (HPC) 106 % of control
